{"source": "paper PMC3206815", "about": "“An Essential Farnesylated Kinesin in Trypanosoma brucei” (PLoS ONE, 2011)", "origin": "cited, not measured here", "target": "T1, TB-PFT (T. brucei protein farnesyl transferase) (Trypanosoma brucei, UniProt Q57U08+Q580J3)", "T1 construct": "gene Tb07.8P12.660; heterodimer", "T1 sequence (Q57U08 1-585)": "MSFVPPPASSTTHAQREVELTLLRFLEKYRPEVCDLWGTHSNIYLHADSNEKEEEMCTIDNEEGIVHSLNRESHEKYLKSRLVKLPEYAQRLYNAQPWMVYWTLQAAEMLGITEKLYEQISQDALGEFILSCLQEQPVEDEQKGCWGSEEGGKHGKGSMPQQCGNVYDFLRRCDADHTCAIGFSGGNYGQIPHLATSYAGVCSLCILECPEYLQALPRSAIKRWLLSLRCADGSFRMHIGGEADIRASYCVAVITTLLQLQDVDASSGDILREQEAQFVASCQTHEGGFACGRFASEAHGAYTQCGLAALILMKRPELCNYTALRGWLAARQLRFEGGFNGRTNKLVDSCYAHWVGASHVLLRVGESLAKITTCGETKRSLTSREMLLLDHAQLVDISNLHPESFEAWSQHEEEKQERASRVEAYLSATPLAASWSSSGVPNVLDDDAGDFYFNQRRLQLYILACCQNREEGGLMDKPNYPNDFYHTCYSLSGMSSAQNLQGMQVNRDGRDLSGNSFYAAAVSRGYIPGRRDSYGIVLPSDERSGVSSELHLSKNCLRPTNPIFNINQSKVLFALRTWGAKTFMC", "T1 sequence (Q580J3 1-612)": "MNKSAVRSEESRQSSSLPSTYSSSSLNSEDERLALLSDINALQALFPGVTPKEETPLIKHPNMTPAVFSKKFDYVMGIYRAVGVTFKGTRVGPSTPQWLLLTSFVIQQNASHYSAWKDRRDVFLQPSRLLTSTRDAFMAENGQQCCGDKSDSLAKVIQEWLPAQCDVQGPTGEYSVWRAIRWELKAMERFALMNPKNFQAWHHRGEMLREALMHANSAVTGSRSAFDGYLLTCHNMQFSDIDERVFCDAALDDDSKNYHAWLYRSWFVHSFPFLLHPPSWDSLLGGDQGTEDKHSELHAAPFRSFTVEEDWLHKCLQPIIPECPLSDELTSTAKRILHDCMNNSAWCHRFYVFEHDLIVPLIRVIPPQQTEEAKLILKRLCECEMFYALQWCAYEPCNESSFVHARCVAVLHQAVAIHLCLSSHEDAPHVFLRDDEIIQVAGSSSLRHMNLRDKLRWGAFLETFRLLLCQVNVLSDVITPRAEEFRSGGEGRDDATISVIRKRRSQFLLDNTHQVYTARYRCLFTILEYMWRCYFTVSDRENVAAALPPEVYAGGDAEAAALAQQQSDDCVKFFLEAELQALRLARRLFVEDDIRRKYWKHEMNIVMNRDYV", "assay": "PFT inhibition, method not described here", "assay_type": "biochemical", "details": "value printed without citation or assay method; cited from earlier work", "note": "pIC50: −log10 of the molar value."}
{"substance": "LN-59", "values": [{"measurement": "pIC50", "result": 7.46}]}
